In one experiment the target is T1, S. cerevisiae H^+-ATPase (Saccharomyces cerevisiae, UniProt P05030).
T1 construct: transformed with the full-length cDNA of the S. cerevisiae plasma membrane H^+-ATPase isoform PMA1; made in house; host or cells: S. cerevisiae RS72
As to the kind of experiment: NADH-coupled ATPase assay, initial rate of ATP hydrolysis. The conditions noted are these: pH 7, n = 3. The experiment is classed as biochemical. The procedure:
To investigate whether the ATPase inhibition observed was due to compound binding at the ATP binding site, three compounds (5, 7, and 10) were selected for further evaluation in an ATPase activity assay on S. cerevisiae H^+-ATPase-containing membranes in presence of increasing ATP concentrations. The initial rate of ATP turnover was measured spectrophotometrically by an NADH-coupled ATPase activity assay that uses phosphoenolpyruvate to regenerate ATP, as described in Møller et al., 1980.[18]
Fig. 5 Kinetics of H^+-ATPase inhibition by carbazole compounds. The initial rate of ATP hydrolysis catalyzed by S. cerevisiae H^+-ATPase was determined by an NADH-coupled ATPase assay, as described in the Supporting Information. The reaction was initiated by the addition of H^+-ATPase-containing membranes (arrows with “H^+-ATPase”) to a pH 7 buffer containing 5 mM ATP. At the indicated times the respective compounds were added to give the final compound concentrations shown in the figure and a final DMSO concentration of 1.1%.
Fig. 6 Compound dependence of the initial rate of H^+-ATPase activity at 1 mM (triangles) or 10 mM (circles) ATP. The initial rates following compound addition deduced from experiments similar to those shown in Fig. 5 were normalized to the maximal rate obtained at 10 mM ATP in the absence of compound (presence of 1.1% DMSO) and plotted as a function of the compound concentration.
The initial rate of ATP turnover at RT was measured spectrophotometrically at 340 nm by an NADH-coupled ATPase assay that uses phosphoenolpyruvate to regenerate ATP, as described in Møller et al., 1980^4. The reaction buffer contained 17.5 mM MOPS-NaOH pH 7, 44 mM KNO3, 22 mM NaN3, 0.22 mM Na2MoO4, 1 mM phosphoenolpyruvate, 0.27 mM NADH, 83 µg/ml pyruvate kinase, 22 µg/ml L-lactate dehydrogenase, either 1, 5 or 10 mM ATP, and MgSO4 to give a Mg^2+ concentration of 2 mM in excess over the ATP concentration. The ATPase reaction was initiated by the addition of 0.2-0.3 mg/ml of S. cerevisiae Pma1-containing membranes followed by addition of compound (resulting in a final DMSO concentration of 1.1%).

In the next experiment the test system is S. cerevisiae. The experiment in a line: Extracellular acidification assay. The experiment is classed as cell-based. Particulars: Saccharomyces cerevisiae, mean ± SEM n = 3. An excerpt:
(§1) It was subsequently evaluated whether or not the carbazoles were able to prevent extracellular acidification of the surrounding media by blocking the pumping activity of the H^+-ATPase within fungal cells.[15] […] The H^+-ATPase requires ATP to transport protons out of fungal cells. Consequently, a decrease in intracellular ATP (iATP) levels will indirectly affect H^+-ATPase activity. […] In all cases, iATP levels were […] in C. albicans cells exposed to carbazoles compared to the untreated control. […] This implies that the carbazoles need to pass the fungal membrane to inhibit the H^+-ATPase and 7, 18 and 19 may have reduced membrane permeability.
(§2) The ability of S. cerevisiae and C. albicans to acidify the media upon glucose addition was evaluated using the pH sensor dextran (40,000MW)-fluorescein-isothiocyanate as described in Kjellerup et al., 2017^6. Briefly, the cells was starved overnight in 50 mM KCl, pH 6.7 at 4 °C. The cell suspension (Final OD600 of 0.19) was mixed with 1.3 µg/ml dextran (40,000MW)-fluorescein-isothiocyanate, 1.5 % DMSO containing inhibitors and the assay initiated with the addition of 2 % D-(+)-glucose. The rate of media acidification was calculated based on the slope of the fluorescent drop in the first 12 minutes after glucose addition.

The next experiment deals with C. albicans. The experiment in a line: Extracellular acidification assay. The experiment is classed as cell-based. The conditions noted are these: Candida albicans, mean ± SEM n = 3.
Excerpt: as §1, §2

A further experiment has as its system C. albicans cells. The experiment in a line: Intracellular ATP determination. The experiment is classed as cell-based. The conditions noted are these: compound at 20 µM, 30 minutes, mean ± SEM n = 5.
Excerpt: as §1
C. albicans cells were transferred to 3 ml of YPD media and grown overnight at 30 °C and 150 rpm. The cells were pelleted at 2000 × g for 2 min. and washed in PBS (Sigma-Aldrich, catalog number 8537) twice before re-suspension to an OD600 of 0.1. Cell suspension (98 µL) and 2 µl compound in DMSO were incubated for 30 minutes at RT. Forty microliters of this suspension was then transferred to a black 96-well plate containing 40 µl BacTiterGlo reagent (Promega, Madison, WI) and the plate was incubated for 15 minutes in the dark at room temperature. Luminescence was read on a SpectraMax X5 (Molecular Devices, Sunnyvale, CA) plate reader with 10 s shake and 0.5 s integration time. A standard curve containing 10, 100 and 1000 nM ATP was prepared for every experiment.

In another experiment the test system is Pseudomonas aeruginosa. Also noted: method as in PMID 25453797, PMID 27167126. The conditions noted are these: cited from earlier work.
A further experiment relates to C. albicans (SC5314). As to the kind of experiment: Time-kill assay. The experiment is classed as cell-based. The procedure: (§3) Time-kill studies were carried out to investigate whether the antifungal activity observed for 10 was fungistatic or fungicidal. Given the essential nature of fungal H^+-ATPase, it is anticipated that compounds targeting H^+-ATPase activity will promote fungicidal effects.[21]
(§4) Fig. 7 Time-kill data for C. albicans and C. glabrata cells (1 × 10^5 CFU/ml) incubated with DMSO (final concentration 1%), 1 µM AMB, and 5 or 10 µM of compound 10.
(§5) C. albicans (SC5314) and C. glabrata (ATCC 90030) cells (1 x 10^5 CFU/ml) were incubated in 10 mL RPMI media at 30 °C with gentle agitation (150 rpm) in the presence of amphotericin B (1 µM) or compound 10 at a concentration of 5 or 10 µM. At the indicated time points (0, 1, 3, 5 and 24 h at 30 °C incubation, 150 rpm), 100-μL aliquots were removed, serially diluted (10-fold) in saline (0.9% NaCl), and plated on YPD agar plates. The resulting CFUs were enumerated after incubation at 30 °C for 48 h. Cells treated with DMSO (1%, v/v) served as a control.

A further experiment concerns C. glabrata (ATCC 90030). The experiment in a line: Time-kill assay. The experiment is classed as cell-based. The procedure: as §3, §4, §5

These results are taken from PMC5609566, “Elucidation of antimicrobial activity and mechanism of action by N-substituted carbazole derivatives” (Bioorganic & Medicinal Chemistry Letters, 2017).

What is called IC50 is the concentration needed to halve the response being measured.

T1 sequence (P05030 whole entry, canonical isoform): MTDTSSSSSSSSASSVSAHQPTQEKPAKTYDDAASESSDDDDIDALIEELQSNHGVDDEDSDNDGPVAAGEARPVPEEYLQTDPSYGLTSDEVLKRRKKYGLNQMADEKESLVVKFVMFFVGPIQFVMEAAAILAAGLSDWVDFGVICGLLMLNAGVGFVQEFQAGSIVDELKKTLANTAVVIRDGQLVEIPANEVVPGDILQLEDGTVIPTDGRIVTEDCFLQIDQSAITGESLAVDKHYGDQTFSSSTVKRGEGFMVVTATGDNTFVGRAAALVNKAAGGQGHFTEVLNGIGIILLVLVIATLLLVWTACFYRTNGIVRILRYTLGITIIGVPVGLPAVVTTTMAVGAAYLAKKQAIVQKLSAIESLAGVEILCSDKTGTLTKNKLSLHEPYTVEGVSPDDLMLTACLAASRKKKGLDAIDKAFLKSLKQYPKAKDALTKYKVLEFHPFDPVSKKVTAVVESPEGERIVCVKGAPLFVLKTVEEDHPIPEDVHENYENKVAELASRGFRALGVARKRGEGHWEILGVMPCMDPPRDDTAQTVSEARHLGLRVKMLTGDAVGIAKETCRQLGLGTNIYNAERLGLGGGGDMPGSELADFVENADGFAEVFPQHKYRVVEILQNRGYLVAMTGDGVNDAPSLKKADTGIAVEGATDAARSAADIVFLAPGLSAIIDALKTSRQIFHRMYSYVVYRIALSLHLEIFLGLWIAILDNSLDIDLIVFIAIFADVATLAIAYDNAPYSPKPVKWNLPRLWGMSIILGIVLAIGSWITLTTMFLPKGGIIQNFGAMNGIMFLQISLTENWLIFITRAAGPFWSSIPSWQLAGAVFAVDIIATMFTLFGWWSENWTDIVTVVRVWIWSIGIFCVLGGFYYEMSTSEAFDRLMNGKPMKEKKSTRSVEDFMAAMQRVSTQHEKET

With `OC(Cn1ccnc1)Cn1c2ccc(Cl)cc2c2cc(Cl)ccc21` (centres unmarked) [Compound 5, 1-(3,6-dichloro-9H-carbazol-9-yl)-3-(1H-imidazol-1-yl)propan-2-ol], the IC50 worked out at 78 ± 14.9 µM against S. cerevisiae H^+-ATPase (1 mM ATP) and 60 ± 14.2 µM against S. cerevisiae H^+-ATPase (10 mM ATP).

Take `OC(CN1CCOCC1)Cn1c2ccc(Cl)cc2c2cc(Cl)ccc21` (centres unmarked) [Compound 7, 1-(3,6-dichloro-9H-carbazol-9-yl)-3-morpholinopropan-2-ol]: the half-maximal inhibitory concentration (IC50) stood at 33.3 ± 0.6 µM in the experiment on S. cerevisiae, 22.2 ± 12.9 µM with C. albicans, 29.7 ± 6.7 µM on S. cerevisiae H^+-ATPase (1 mM ATP) and 16.8 ± 1.7 µM at S. cerevisiae H^+-ATPase (10 mM ATP). The iATP in the experiment on C. albicans cells was found to be 93 ± 45 nM.

As for `CN1CCN(CC(O)Cn2c3ccc(Cl)cc3c3cc(Cl)ccc32)CC1` (centres unmarked) [Compound 8, 1-(3,6-dichloro-9H-carbazol-9-yl)-3-(4-methylpiperazin-1-yl)propan-2-ol], the half-maximal inhibitory concentration (IC50) in the experiment with S. cerevisiae is 11.1 ± 2.1 µM; with C. albicans, 9.7 ± 6.8 µM. The iATP in the experiment with C. albicans cells stood at 70 ± 25 nM.

For the compound `CCC(C)NCC(O)Cn1c2ccc(Cl)cc2c2cc(Cl)ccc21` (centres unmarked) [Compound 10, 1-(sec-butylamino)-3-(3,6-dichloro-9H-carbazol-9-yl)propan-2-ol], the concentration for half-maximal inhibition (IC50) turned out to be 2.1 ± 1 µM with S. cerevisiae, 2.4 ± 1.2 µM in the experiment on C. albicans, 4.5 ± 0.5 µM against S. cerevisiae H^+-ATPase (1 mM ATP) and 6.3 ± 1.2 µM on S. cerevisiae H^+-ATPase (10 mM ATP). Moreover, the “activity in bacteria reported previously” value with Pseudomonas aeruginosa is on record as “membrane damaging activity”. Moreover, in the experiment on C. albicans cells, the iATP is 491 ± 79 nM. Also, the results for the “exposure time after which fungicidal activity was evident” value in the experiment on C. albicans (SC5314) (10 µM) and with C. glabrata (ATCC 90030) (C. glabrata) were 1 h and 3 h, respectively. The “time-kill outcome (fungistatic or fungicidal)” value in the experiment with C. albicans (SC5314) (5 or 10 µM, versus 1 µM AMB) is “cell death comparable to that observed for amphotericin B”; in the experiment with C. glabrata (ATCC 90030) (wild-type C. glabrata, 5 or 10 µM, versus 1 µM AMB) it was “cell death comparable to that observed for amphotericin B”.

Regarding `CN(C)CCCCn1c2ccc(Cl)cc2c2cc(Cl)ccc21` [Compound 15], the concentration for half-maximal inhibition (IC50) with S. cerevisiae came to 16.2 ± 2.6 µM; in the experiment on C. albicans, 13.1 ± 7.2 µM. The compound further registered an iATP in the experiment on C. albicans cells of 53 ± 10 nM.

`CN1CCN(CCCn2c3ccc(Cl)cc3c3cc(Cl)ccc32)CC1` [Compound 16, 3,6-dichloro-9-(3-(4-methylpiperazin-1-yl)propyl)-9H-carbazole]: the IC50 turned out to be 7.3 ± 0.4 µM with S. cerevisiae and 9.5 ± 2.5 µM with C. albicans. The compound also gave an iATP in the experiment on C. albicans cells of 235 ± 70 nM.
